Assay results as given in patent US9642853B2, “Stable pharmaceutical composition containing folates” (APROFOL AG, priority 2013, dated 2017).

Columns and labels:
[1] = refrigerator: 2 to 8° C.; cited from earlier work
Solubility in water = assay type: physicochemical

| SMILES | true solubility of leucovorin (calculated as folinic acid) [1] [mg per ml] | solubility in water (Solubility in water) |
| --- | --- | --- |
| Nc1nc2c(c(=O)[nH]1)N(C=O)C(CNc1ccc(C(=O)N[C@@H](CCC(=O)O)C(=O)O)cc1)CN2 (single isomer, unassigned) [leucovorin] | 3 | – |
| Nc1nc2c(c(=O)[nH]1)N(C=O)C(CNc1ccc(C(=O)NC(CCC(=O)[O-])C(=O)[O-])cc1)CN2.[Zn+2] (centres unmarked) [leucovorin zinc] | – | almost insoluble in water |
